# Reference: the supplement of paper PMC10307832
# How the values were obtained:
# Experiment in all cases: relative viability (nuclei count vs DMSO), 5 days (fraction); higher = more cells survive
# [1] = test system: PC-14
# Method in brief: (§1)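 Relative viability equals treated-well nuclei counts divided by vehicle-well nuclei counts. Counts came from 4× images of lung cancer cell lines grown in 1536-well plates for 5 days after pin-tool dosing on the day after seeding. Dosing used one drug alone or a fixed anchor-drug dose plus five library-drug doses (not always all listed) in √10 steps, and values are medians of duplicate plates.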
# [2] = test system: HCC-366
# Method in brief: as §1
# [3] = test system: NCI-H2228
# Method in brief: as §1
# [4] = test system: NCI-H2347
# Method in brief: as §1
# [5] = test system: SW 1573
# Method in brief: as §1
# [6] = test system: NCI-H596
# Method in brief: as §1
# [7] = test system: EBC-1
# Method in brief: as §1
# [8] = test system: SK-MES-1
# Method in brief: as §1
# [9] = test system: LC-2-ad
# Method in brief: as §1
# [10] = test system: HOP-62
# Method in brief: as §1
# [11] = test system: NCI-H2085
# Method in brief: as §1
# [12] = test system: LK-2
# Method in brief: as §1
# [13] = test system: RERF-LC-KJ
# Method in brief: as §1
# [14] = test system: NCI-H2405
# Method in brief: as §1
# [15] = test system: HCC-78
# Method in brief: as §1
# [16] = test system: EMC-BAC-2
# Method in brief: as §1
# [17] = test system: NCI-H2009
# Method in brief: as §1
# [18] = test system: NCI-H1993
# Method in brief: as §1
# [19] = test system: NCI-H1734
# Method in brief: as §1
# [20] = test system: NCI-H1355
# Method in brief: as §1
# [21] = test system: CAL-12T
# Method in brief: as §1
# [22] = test system: Calu-6
# Method in brief: as §1
# [23] = test system: NCI-H3122
# Method in brief: as §1
compound,measurement,setting,value
CCCCCCCCCCCC1=C(O)C(=O)C=C(O)C1=O [Embelin] + C[C@]1(O)C[C@@H](c2nc(-c3ccc4ccc(-c5ccccc5)nc4c3)c3c(N)nccn32)C1 [Linsitinib] (partner 1 µM),relative viability,[1]; first compound 0.08 µM,0.921
same,relative viability,[1]; first compound 0.8 µM,1
same,relative viability,[1]; first compound 2.53 µM,1.06
same,relative viability,[1]; first compound 8 µM,0.972
same,relative viability,[2]; first compound 0.08 µM,0.697
same,relative viability,[2]; first compound 0.8 µM,0.726
same,relative viability,[2]; first compound 2.53 µM,0.846
same,relative viability,[2]; first compound 8 µM,0.49
same,relative viability,[3]; first compound 0.08 µM,0.636
same,relative viability,[3]; first compound 0.8 µM,0.781
same,relative viability,[3]; first compound 2.53 µM,1.09
same,relative viability,[3]; first compound 8 µM,0.59
same,relative viability,[4]; first compound 0.08 µM,0.968
same,relative viability,[4]; first compound 0.8 µM,1.03
same,relative viability,[4]; first compound 2.53 µM,1.09
same,relative viability,[4]; first compound 8 µM,0.958
same,relative viability,[5]; first compound 0.08 µM,0.842
same,relative viability,[5]; first compound 0.8 µM,0.924
same,relative viability,[5]; first compound 2.53 µM,0.75
same,relative viability,[5]; first compound 8 µM,0.832
same,relative viability,[6]; first compound 0.08 µM,1.11
same,relative viability,[6]; first compound 0.8 µM,1.14
same,relative viability,[6]; first compound 2.53 µM,1.25
same,relative viability,[6]; first compound 8 µM,1.05
same,relative viability,[7]; first compound 0.08 µM,0.946
same,relative viability,[7]; first compound 0.8 µM,1.01
same,relative viability,[7]; first compound 2.53 µM,0.998
same,relative viability,[7]; first compound 8 µM,0.751
same,relative viability,[8]; first compound 0.08 µM,1.17
same,relative viability,[8]; first compound 0.8 µM,1.11
same,relative viability,[8]; first compound 2.53 µM,1.17
same,relative viability,[8]; first compound 8 µM,1.04
same,relative viability,[9]; first compound 0.08 µM,0.822
same,relative viability,[9]; first compound 0.8 µM,0.891
same,relative viability,[9]; first compound 2.53 µM,0.526
same,relative viability,[9]; first compound 8 µM,0.913
same,relative viability,[10]; first compound 0.08 µM,0.937
same,relative viability,[10]; first compound 0.8 µM,1.05
same,relative viability,[10]; first compound 2.53 µM,1.06
same,relative viability,[10]; first compound 8 µM,0.96
same,relative viability,[11]; first compound 0.08 µM,0.909
same,relative viability,[11]; first compound 0.8 µM,1.02
same,relative viability,[11]; first compound 2.53 µM,0.972
same,relative viability,[11]; first compound 8 µM,1.04
same,relative viability,[12]; first compound 0.08 µM,0.685
same,relative viability,[12]; first compound 0.8 µM,0.525
same,relative viability,[12]; first compound 2.53 µM,0.805
same,relative viability,[12]; first compound 8 µM,0.547
same,relative viability,[13]; first compound 0.08 µM,0.905
same,relative viability,[13]; first compound 0.8 µM,0.89
same,relative viability,[13]; first compound 2.53 µM,0.961
same,relative viability,[13]; first compound 8 µM,0.908
same,relative viability,[14]; first compound 0.08 µM,0.978
same,relative viability,[14]; first compound 0.8 µM,1.16
same,relative viability,[14]; first compound 2.53 µM,0.973
same,relative viability,[14]; first compound 8 µM,0.92
same,relative viability,[15]; first compound 0.08 µM,0.516
same,relative viability,[15]; first compound 0.8 µM,0.623
same,relative viability,[15]; first compound 2.53 µM,0.52
same,relative viability,[15]; first compound 8 µM,0.413
same,relative viability,[16]; first compound 0.08 µM,0.845
same,relative viability,[16]; first compound 0.8 µM,0.862
same,relative viability,[16]; first compound 2.53 µM,0.844
same,relative viability,[16]; first compound 8 µM,0.842
same,relative viability,[17]; first compound 0.08 µM,1.24
same,relative viability,[17]; first compound 0.8 µM,1.3
same,relative viability,[17]; first compound 2.53 µM,1.21
same,relative viability,[17]; first compound 8 µM,1.12
same,relative viability,[18]; first compound 0.08 µM,0.734
same,relative viability,[18]; first compound 0.8 µM,0.807
same,relative viability,[18]; first compound 2.53 µM,0.764
same,relative viability,[18]; first compound 8 µM,0.771
same,relative viability,[19]; first compound 0.08 µM,0.832
same,relative viability,[19]; first compound 0.8 µM,1.05
same,relative viability,[19]; first compound 2.53 µM,0.927
same,relative viability,[19]; first compound 8 µM,0.876
same,relative viability,[20]; first compound 0.08 µM,0.757
same,relative viability,[20]; first compound 0.8 µM,0.813
same,relative viability,[20]; first compound 2.53 µM,0.968
same,relative viability,[20]; first compound 8 µM,0.724
same,relative viability,[21]; first compound 0.08 µM,0.783
same,relative viability,[21]; first compound 0.8 µM,0.915
same,relative viability,[21]; first compound 2.53 µM,0.749
same,relative viability,[21]; first compound 8 µM,0.831
same,relative viability,[22]; first compound 0.08 µM,0.993
same,relative viability,[22]; first compound 0.8 µM,1.1
same,relative viability,[22]; first compound 2.53 µM,0.981
same,relative viability,[22]; first compound 8 µM,0.959
same,relative viability,[23]; first compound 0.08 µM,1.01
same,relative viability,[23]; first compound 0.8 µM,0.946
same,relative viability,[23]; first compound 2.53 µM,1.01
same,relative viability,[23]; first compound 8 µM,1.12
